Measured values as given in publication PMC7835237, “Dual mechanism β-amino acid polymers promoting cell adhesion” (Nature Communications, 2021).

Assays:
[1] = tested on: MC3T3-E1 preosteoblast cells; experiment: Cell spreading area on modified surfaces (immunofluorescence analysis of cell morphology); type: cell-based, mouse
Method: The degree of cell spreading on a functionalized glass slide was measured by immunofluorescence analysis. After culture medium was removed, the slide was washed with PBS and then cells on the slide were fixed with 4% paraformaldehyde for 20 min. The slide was washed with PBS thrice and incubated for 5 min with 0.4% triton-X in PBS. Subsequently, the slide was washed with PBS thrice, followed by blocking with 3% bovine serum albumin (BSA) in PBS for 1 h at rt and then incubated with Alexa Fluor-555-conjugated anti-vinculin antibody (1:300 in PBS) overnight at 4 °C. The slide was washed with PBS thrice and incubated for 2 h with FITC-phalloidin (1:200 in PBS) and 4′-6-diamidino-2-phenylindole (DAPI) (5 μg/mL) for 10 min. The slide was washed with PBS thrice and its fluorescent images were collected on a confocal microscope (Nikon A1R, Japan).

[2] = tested on: MC3T3-E1 preosteoblast cells; experiment: Integrin αvβ3 to block RGD, cell adhesion; type: cell-based, mouse; parameters: unit not given here; conditions: for Cell density (figure 5g) / Cell spreading area (figure 5f): - αvβ3: serum-incubated surface without integrin αvβ3, 2 h after seeding; for Supplementary Figure8, cell adhesion on modified surface: - αvβ3
Method: An aliquot of 10 μL α-MEM medium containing 10% FBS was added to each well (formed by a 50-well coverslip on the top of a glass slide) and the slide was incubated in a humidified atmosphere at 37 °C for 2 h[24]. The slide was washed with PBS and incubated with integrin αvβ3 (10 µg/mL in PBS) at 37 °C for 1 h. Then cells at a concentration of 1.5 × 10^5 cells/mL in a serum-free medium were added to each individual well, having bottom surface modified with DM50CO50 or RGD peptide. After the slide was incubated at 37 °C for 2 h, cells in each well were stained with a live/dead staining solution and the fluorescent images were captured under a microscope (Nikon Eclipse Ti-S, Japan) at eight different locations in each well. The collected images were analyzed using the Image-pro plus software.

[3] = Water contact angle of modified surfaces; type: physicochemical; conditions: modified glass surface, Millipore water drops
Method: The water contact angles of bare glass, OEG8, RGD, and DM50CO50-modified surfaces were measured with a contact angle meter (JC2000D2) from Shanghai Zhongchen Digital Technology Apparatus Co., Ltd. Liquid drops (Millipore water) were delivered to the surface using a microsyringe.

## RGDSPC [cell adhesion gold standard RGD peptide (RGDSPC), attached to surface]
[1]; cultured on modified surface for 3 h, replicate 1
  Cell area of preosteoblast cells: 3956
[1]; cultured on modified surface for 3 h, replicate 2
  Cell area of preosteoblast cells: 3895
[1]; cultured on modified surface for 3 h, replicate 3
  Cell area of preosteoblast cells: 3549
[1]; cultured on modified surface for 24 h, replicate 1
  Cell area of preosteoblast cells: 4800
[1]; cultured on modified surface for 24 h, replicate 2
  Cell area of preosteoblast cells: 4752
[1]; cultured on modified surface for 24 h, replicate 3
  Cell area of preosteoblast cells: 4625
[2]; value 1 of n = 9
  Cell density (figure 5g): 80
  Cell spreading area (figure 5f): 3308.7
[2]; value 2 of n = 9
  Cell density (figure 5g): 69
  Cell spreading area (figure 5f): 3551.3
[2]; value 3 of n = 9
  Cell density (figure 5g): 74
  Cell spreading area (figure 5f): 2958.5
[2]; value 4 of n = 9
  Cell density (figure 5g): 75
  Cell spreading area (figure 5f): 3300.7
[2]; value 5 of n = 9
  Cell density (figure 5g): 69
  Cell spreading area (figure 5f): 3020
[2]; value 6 of n = 9
  Cell density (figure 5g): 79
  Cell spreading area (figure 5f): 2866.3
[2]; value 7 of n = 9
  Cell density (figure 5g): 74
  Cell spreading area (figure 5f): 2910.3
[2]; value 8 of n = 9
  Cell density (figure 5g): 73
  Cell spreading area (figure 5f): 3174.3
[2]; value 9 of n = 9
  Cell density (figure 5g): 70
  Cell spreading area (figure 5f): 3494.7
[2]; replicate 1
  Supplementary Figure8, cell adhesion on modified surface: 0.61
[2]; replicate 2
  Supplementary Figure8, cell adhesion on modified surface: 0.2888
[2]; replicate 3
  Supplementary Figure8, cell adhesion on modified surface: 0.3748
[3]
  Water contact angle: 41 °
